# Experimental data as given in patent US10292991B2, “Small molecule therapeutic compounds that reduce the incidence of intracerebral hemorrhage and brain microhemorrhages” (St. Michaels Hospital, priority 2016, dated 2019).
# Columns and labels:
# [1] = system: zebrafish embryos treated with LPS; assay: LPS-induced ICH/BMH and mortality in zebrafish embryos; type: in vivo; conditions: 1 μmol/L in fish water; LPS 200 mg/mL; preliminary data
# Description: Experiment 1: LPS-induced ICH/BMH in zebrafish embryos. The lead compounds will be tested in a LPS model of ICH/BMH to determine if rescue of the ICH/BMH phenotype is a general property of these compounds or it is specific to statin-induced ICH/BMH. […] LPS concentration used was 200 mg/mL. […] Experiments are ongoing to define the rescuing effects of artemether on LPS-induced brain hemorrhage. Double transgenic zebrafish (Gata1:DsRed/Flk1:GFP) with green fluorescent vessel and red fluorescent red blood cells are used. Arrow points to hemorrhage.
# [2] = system: LPS-induced brain microbleeds in mice; assay: LPS-induced microbleeding mouse model; type: in vivo, C57BL/6 mice
# Description: An LPS-mediated micro bleeding model was created similar to that described in Lui et al (Liu S, Grigoryan M M, Vasilevko V et al. Comparative analysis of H&E and Prussian blue staining in a mouse model of cerebral microbleeds. J Histochem Cytochem 2014; 62:767-773). 9-10 week old C57BL/6 mice of both sexes were purchased from Charles River, and randomly assigned to control or treatment groups in equal numbers. LPS from Salmonella enterica (Sigma Aldrich, St Louis, Mo.) was reconstituted with PBS to a final concentration of 5 mg/ml. Both control (n=16) and drug treatment (n=16) groups received injections of 5 mg/kg LPS at times 0 and 24 hrs. The drug treatment group, further divided into high dose (n=4) and low dose (n=12), received intraperitoneal injections of artemether (ARM) (25 mg/kg for Low dose and 100 mg/kg for High dose) at time points −72, −48, −24, 0 and 24 hrs of LPS treatment. All mice were sacrificed at 48 hrs after the first LPS injection.
# LPS-induced microbleeding model: All mice in the LPS study were deeply anesthetized with ketamine and xylazine and perfused through the left cardiac ventricle with NaCl, 0.9%, followed by 4% paraformaldehyde (PFA) in 1×PBS buffer and 2 mM Gadoteridol contrast agent for 24 hours. Each brain was transferred into a 1×PBS+0.02% sodium azide and 2 mM Gadoteridol contrast agent. Brains were kept in this immersion solution for 14 days before imaging to ensure proper contrast diffusion in the brain for magnetic resonance imaging (MRI) scan. […]
# For the integrin ICH model, brains were taken out of the skull, cut at the mid-coronal position and assessed in a binary manner for whether or not there was any evidence of ICH. […]
# Brains were scanned using 7T Burker MRI with 16-channel solenoid coils. […] Following the reconstruction of images and applying image distortion correction algorithms, all brains were processed and analyzed for total volume of brain and total volume of hemorrhage. Quantification was done using percentage of bleeding (normalized to each brain size). […] Lastly, quantification was done in a blinded fashion. […]
# zebrafish larvae = assay: Toxicity assay in zebrafish larvae (heart beat, blood flow, cardiac edema); type: in vivo, zebrafish (Danio rerio)
# Description: The embryos were collected and distributed into a 96-well plate in 0.5% DMSO, similar to efficacy assays. […] Heart beat and blood flow were ranked from 3 (normal heart beat or blood flow) to 0 (no heart beat or blood flow). Cardiac edema was ranked from 0 (normal heart without edema) to −3 (severe cardiac edema). […] The ratio of TC50/EC50 was calculated in each case.
# Heart beat and blood flow were ranked from 3 (normal heart beat or blood flow) to 0 (no heart beat or blood flow). Cardiac edema was ranked from 0 (normal heart without edema) to −3 (severe cardiac edema). […] Data is expressed as mean±SEM from 3 experiments.
# [3] = system: Cdh5 - exon2 morpholino-induced hemorrhage in zebrafish; assay: Cdh5 (VE-cadherin) morpholino-induced hemorrhage in zebrafish, rescue by drugs; type: in vivo, zebrafish (Danio rerio); conditions: result in words, no EC50
# Description: Danieau buffer (58 mM NaCl, 0.7 mM KCl, 0.4 mM MgSO4, 0.6 mM Ca(NO3)2, 5.0 mM HEPES, pH 7.6) was used to dilute the MO solutions to 0.2 mM final concentration. Individual wells were placed on a 1.0% agarose plate, in which the embryos were positioned. Afterwards, the MO solution was injected through the cell yolk into embryos of 1 to 4 cell-stage. The injected quantities varied from 0.5 to 15 ng.
# Panels A & B: Stable EC junctions are maintained by a Cdc42-dependent and VE-cadherin-mediated cell-cell adhesion. VE cadherins are found on the surfaces of EC cell-cell junctions. VE-cadherins are associated with β- and α-catenins at their cytoplasmic domains, which connect them to the actin-based cytoskeleton (blue circles). Cdc42 belongs to the Rho-family of small guanosine triphosphatases (GTPases), which are the main regulators of VE-cadherin-based cell-cell adhesion. The functions of hmgcrb, βPix, and pak2a in regulating junctional stability in zebrafish are shown. HNGCR mediated GGPP biosynthesis regulates Cdc42 prenylation. βPix is a GEF that increases CDC42 affinity for GTP. Pak2 is an effector of Cdc42, which regulates actin filament organization.
# Suppression of VE-cadherin induces hemorrhage.
# [4] = drug from Sequoia Research (UK)
# [5] = drug from Sigma, 3 dpf larvae, drug added 24 hpf
smiles,measurement,setting,value
CO[C@H]1O[C@@H]2O[C@@]3(C)CC[C@H]4[C@H](C)CC[C@@H]([C@H]1C)[C@@]24OO3 [Artemether],Effect on fish survival (LPS-induced mortality),[1],protective effect
same,Total number of microbleeds inside the brain (H&E slices),"[2]; LPS+ARM vs LPS, n=8, P<0.01",significantly reduced
same,Total surface microbleeds (stereomicroscope count),"[2]; LPS+ARM vs LPS, n=8, P<0.05",robust reduction
same,"Reduction of bleeding (MRI, total microbleed volume normalized to brain volume)","[2]; vs model control group, n=8, P<0.05",about ⅔
same,TC50 (Blood flow),zebrafish larvae; [4],746.3 nM
same,TC50/EC50 ratio (Blood flow),zebrafish larvae; [4],(9.2)
same,TC50/EC50 ratio (Edema),zebrafish larvae; [4],(6.5e+010)
same,TC50/EC50 ratio (Heart beat),zebrafish larvae; [4],(1.3e+011)
same,TC50/EC50 ratio (Blood flow),zebrafish larvae; drug from Sigma,(39.5)
same,TC50/EC50 ratio (Edema),zebrafish larvae; drug from Sigma,(87.1)
same,TC50/EC50 ratio (Heart beat),zebrafish larvae; drug from Sigma,(94.3)
same,TC50 (Blood flow),zebrafish larvae; [5],975.3 nM
same,TC50 (Edema),zebrafish larvae; [5],19564 nM
same,TC50 (Heart beat),zebrafish larvae; [5],2328 nM
same,Safety in zebrafish embryos (EC50 compared with TC50),zebrafish larvae; result in words,EC50 is much lower than TC50
same,Rescue of hemorrhage induced by Cdh5 - exon2 morpholino,[3]; listed as ARM,rescue was observed
same,Rescue of hemorrhage induced by Cdh5 - exon2 morpholino,[3]; listed as ARM (Sigma),Rescue effect
